Data reported in patent US20050112573A1, “Method of detecting toxic substance” (priority 2001, published 2005).

Tested on: yeast genes (level of expressed mRNA)
Test: DNA chip analysis of expressed mRNA of yeast genes after 2 h culture with a toxic chemical substance
Type: cell-based, Saccharomyces cerevisiae S288C
Experimental: Yeast (Saccharomyces cerevtisiae S288C (α SUC2mal mel gap2 CUP1)) were cultured at 25° C. on YPD medium (yeast extract 1%, polypepton 2%, glucose 2%). One of toxic chemical substances was added to the cell at logarithmic growth phase, and the cell was further cultured for two hours. Cell was cultured without any chemical substance in the same condition, and was used as control. Concentrations of the chemical substances were defined to inhibit the growth of the yeast but not lead to death.
After the completion of cultivation, the culture was centrifuged to collect the cells. To the cells, sodium acetate buffer (50 mM sodium acetate, 10 mM EDTA, 1% SDS) was added, and the mixture was shaken at 65° C. for five minutes, followed by returning to room temperature, and obtaining the supernatant, which procedure was repeated two times. To the supernatant, ½ amount of a solution of phenol/chloroform was added, and the mixture was centrifuged to give a supernatant, which was added with an equal amount of chloroform, and the mixture was centrifuged to give a supernatant. To the supernatant, an equal amount of isopropanol containing 0.3 M sodium acetate was added, and the mixture was allowed to stand at room temperature for 30 minutes, after which the mixture was centrifuged to give a sediment of the whole RNAs. Seventy % ethanol was added to the sediment, and the mixture was again centrifuged to give a sediment, which was then dried and dissolved in water. mRNA was isolated from the whole RNAs as followings. In view of the fact that a poly A chain is attached to the 3′ terminus of mRNA, a polynucleotide having a poly T structure which was immobilized on the surface of latex beads was used to trap the mRNA, and then the mRNA was washed and eluted with spine column (Oligotex-dT30<Super>mRNA Purification Kit, Takara). Reverse transcription of the mRNA was conducted with a reverse transcriptase (Super Script II Reverse Transcriptase; catalogue No. 18064-014, GibcoBRL) using fluorescence-labeled nucleotides to give cDNAs that were introduced with Cy3-dUTP or Cy5-dUTP during the reverse transcription.
The labeled cDNAs were dissolved in TE buffer (10 mM Tris-HCl/1 mM EDTA, pH8.0), and the solution was dropped on the DNA chip containing the whole genes of yeast (DNA Chip Research Inc. Japan) so that the cDNAs were hybridized on the DNA chip at 65° C. for over 12 hours. The fluoresces intensity of the DNA chip was read with a scanner, and the ratio relative to the fluorescence intensity resulting from the absence of chemical substance was estimated as the following, which is shown in Tables 1 to 9: [formula]
In the Tables, “Intensity” indicated in the rightmost column is a value of the level of expressed mRNA of each gene in control cells as divided by the average level of the expressions of the whole genes.

With `S=C([S-])NCCNC(=S)[S-].[Zn+2]` [(11), zinc N,N′-ethylenebis(dithiocarbamate)] the “level of expressed mRNA in the presence of chemical substance/in its absence” value (“level … of chemical substance/in its absence” for short) (gene YAL012W) was 4.0, the “The level of expressed mRNA in the presence of chemical substance/absence: YAL014C” value (gene YAL014C) was 1.7 and the “The level of expressed mRNA in the presence of chemical substance/absence: YAL017W” value (gene YAL017W) was 0.7. For the same compound, the “The level of expressed mRNA in the presence of chemical substance/absence: YAL018C” value (gene YAL018C) was 0.1, the “level … of chemical substance/in its absence” value (gene YAL038W) was 1.0 and the “level … of chemical substance/in its absence” value (gene YAL044C) was 1.4. The “The level of expressed mRNA in the presence of chemical substance/absence: YAL049C” value (gene YAL049C) was 1.0, the “level … of chemical substance/in its absence” value (gene YAL054C) was 1.3 and the “The level of expressed mRNA in the presence of chemical substance/absence: YAR047C” value (gene YAR047C) was 1.1. For the same compound, the “The level of expressed mRNA in the presence of chemical substance/absence: YAR064W” value (gene YAR064W) was 0.7, the “level … of chemical substance/in its absence” value (gene YAR071W) was 1.1 and the “level … of chemical substance/in its absence” value (gene YBL001C) was 2.3. For the same compound, the “The level of expressed mRNA in the presence of chemical substance/absence: YBL044W” value (gene YBL044W) was 0.6, the “The level of expressed mRNA in the presence of chemical substance/absence: YBL100C” value (gene YBL100C) was 0.9 and the “The level of expressed mRNA in the presence of chemical substance/absence: YBR012C” value (gene YBR012C) was 0.7. The “The level of expressed mRNA in the presence of chemical substance/absence: YBR013C” value (gene YBR013C) was 1.2, the “level … of chemical substance/in its absence” value (gene YBR014C) was 1.8 and the “level … of chemical substance/in its absence” value (gene YBR023C) was 0.9. For the same compound, the “level … of chemical substance/in its absence” value (gene YBR029C) was 0.7, the “level … of chemical substance/in its absence” value (gene YBR035C) was 2.0 and the “level … of chemical substance/in its absence” value (gene YBR050C) was 1.1. The “The level of expressed mRNA in the presence of chemical substance/absence: YBR051W” value (gene YBR051W) was 0.1, the “The level of expressed mRNA in the presence of chemical substance/absence: YBR063C” value (gene YBR063C) was 0.6 and the “The level of expressed mRNA in the presence of chemical substance/absence: YBR066C” value (gene YBR066C) was 1.2. For the same compound, the “level … of chemical substance/in its absence” value (gene YBR068C) was 0.8, the “level … of chemical substance/in its absence” value (gene YBR111C) was 1.5 and the “The level of expressed mRNA in the presence of chemical substance/absence: YBR124W” value (gene YBR124W) was 0.4. For the same compound, the “The level of expressed mRNA in the presence of chemical substance/absence: YBR129C” value (gene YBR129C) was 1.4, the “level … of chemical substance/in its absence” value (gene YBR145W) was 1.1 and the “The level of expressed mRNA in the presence of chemical substance/absence: YBR162C” value (gene YBR162C) was 0.8. The “level … of chemical substance/in its absence” value (gene YBR183W) was 1.9, the “level … of chemical substance/in its absence” value (gene YBR222C) was 1.3 and the “The level of expressed mRNA in the presence of chemical substance/absence: YBR255W” value (gene YBR255W) was 1.5. The “The level of expressed mRNA in the presence of chemical substance/absence: YBR281C” value (gene YBR281C) was 1.4, the “The level of expressed mRNA in the presence of chemical substance/absence: YBR287W” value (gene YBR287W) was 2.0 and the “level … of chemical substance/in its absence” value (gene YBR299W) was 2.4. For the same compound, the “level … of chemical substance/in its absence” value (gene YCL009C) was 1.5, the “The level of expressed mRNA in the presence of chemical substance/absence: YCL042W” value (gene YCL042W) was 3.2 and the “The level of expressed mRNA in the presence of chemical substance/absence: YCL044C” value (gene YCL044C) was 1.1. The “The level of expressed mRNA in the presence of chemical substance/absence: YCL056C” value (gene YCL056C) was 1.5, the “level … of chemical substance/in its absence” value (gene YCL064C) was 1.8 and the “The level of expressed mRNA in the presence of chemical substance/absence: YCR007C” value (gene YCR007C) was 1.1. For the same compound, the “level … of chemical substance/in its absence” value (gene YCR037C) was 0.8, the “level … of chemical substance/in its absence” value (gene YCR048W) was 1.2 and the “level … of chemical substance/in its absence” value (gene YCR098C) was 1.3. For the same compound, the “level … of chemical substance/in its absence” value (gene YDL022W) was 2.8, the “The level of expressed mRNA in the presence of chemical substance/absence: YDL046W” value (gene YDL046W) was 2.6 and the “The level of expressed mRNA in the presence of chemical substance/absence: YDL089W” value (gene YDL089W) was 2.0. For the same compound, the “The level of expressed mRNA in the presence of chemical substance/absence: YDL173W” value (gene YDL173W) was 1.2, the “The level of expressed mRNA in the presence of chemical substance/absence: YDL193W” value (gene YDL193W) was 1.1 and the “The level of expressed mRNA in the presence of chemical substance/absence: YDL233W” value (gene YDL233W) was 0.7. The “level … of chemical substance/in its absence” value (gene YDR009W) was 0.1, the “level … of chemical substance/in its absence” value (gene YDR019C) was 1.8 and the “The level of expressed mRNA in the presence of chemical substance/absence: YDR071C” value (gene YDR071C) was 1.4. The “The level of expressed mRNA in the presence of chemical substance/absence: YDR078C” value (gene YDR078C) was 1.1, the “The level of expressed mRNA in the presence of chemical substance/absence: YDR090C” value (gene YDR090C) was 0.7 and the “The level of expressed mRNA in the presence of chemical substance/absence: YDR109C” value (gene YDR109C) was 0.9.
